Measurements from paper PMC11995724, “Antibiotic target discovery by integrated phenotypic and activity-based profiling of electrophilic fragments” (Cell chemical biology, 2025).
Counter-ions that a name gives are not always drawn.

Assay: in vitro
Conditions: human, hek293t cells

Compound | viability at 48 h, 25 µM
CC(Cl)C(=O)NCc1nnc(C2CCC2)n1C (stereo not drawn) [7-A10, 2-chloro-N-[(5-cyclobutyl-4-methyl-4H-1,2,4-triazol-3-yl)methyl]propanamide] | 87.1%
O=C(CCl)NCCc1cccc2c1Oc1ccccc1O2 [7-J18, 2-chloro-N-[2-(oxanthren-1-yl)ethyl]acetamide] | 0.958%
CC(NC(=O)C(C#N)=Cc1cccc(Cl)c1Cl)c1ccccc1 (stereo not drawn) [9-N04, 2-cyano-3-(2,3-dichlorophenyl)-N-(1-phenylethyl)prop-2-enamide] | 3.94%
COc1ccc(C)cc1NC(=O)C(C)Cl (stereo not drawn) [5-P22, 2-chloro-N-(2-methoxy-5-methylphenyl)propanamide] | 108%
Cn1ccnc1Sc1ccc(C=C(C#N)C(N)=O)cc1[N+](=O)[O-] [8-D03, 2-cyano-3-{4-[(1-methyl-1H-imidazol-2-yl)sulfanyl]-3-nitrophenyl}prop-2-enamide] | 135%
O=C1CCCc2cc(C(=O)CCl)ccc2N1 [10-M20, 7-(2-chloroacetyl)-2,3,4,5-tetrahydro-1H-1-benzazepin-2-one] | 80.5%
O=C(CCl)N1c2ccccc2SCC1c1ccccc1 (stereo not drawn) [4-M18, 2-chloro-1-(3-phenyl-3,4-dihydro-2H-1,4-benzothiazin-4-yl)ethan-1-one] | -0.0405%
C=CC(=O)N(CC)CC(=O)N1CC[S+]([O-])C(C)(C)CC1 (stereo not drawn) [3-K21, N-[2-(7,7-dimethyl-1-oxo-1lambda4,4-thiazepan-4-yl)-2-oxoethyl]-N-ethylprop-2-enamide] | 40.1%
Cc1cc(C)n(C2CN(C(=O)C(C)Cl)C2)n1 (stereo not drawn) [7-F15, 2-chloro-1-[3-(3,5-dimethyl-1H-pyrazol-1-yl)azetidin-1-yl]propan-1-one] | 85.3%
C=CC(=O)Nc1cc(NC(=O)c2ccc([N+](=O)[O-])o2)ccc1F [3-J04, N-[4-fluoro-3-(prop-2-enamido)phenyl]-5-nitrofuran-2-carboxamide] | 0.415%
C=CC(=O)N(Cc1ccc(F)c(C)c1)CC1(O)CCSCC1 [2-E13, N-[(4-fluoro-3-methylphenyl)methyl]-N-[(4-hydroxythian-4-yl)methyl]prop-2-enamide] | 55.6%
COc1ccccc1N1C(=O)C=CC1=O [10-O10, 1-(2-methoxyphenyl)-2,5-dihydro-1H-pyrrole-2,5-dione] | 57.5%
C=CC(=O)N(CC)CC(=O)N1CCCC(c2nccn2C)C1 (stereo not drawn) [3-F03, N-ethyl-N-{2-[3-(1-methyl-1H-imidazol-2-yl)piperidin-1-yl]-2-oxoethyl}prop-2-enamide] | 106%
Cc1ccc(SCCNC(=O)CCl)cc1 [4-K21, 2-chloro-N-{2-[(4-methylphenyl)sulfanyl]ethyl}acetamide] | 1.65%
C=CC(=O)N1CCC(C(=O)NCc2ccc(C(N)=O)cc2)CC1 [3-J08, N-[(4-carbamoylphenyl)methyl]-1-(prop-2-enoyl)piperidine-4-carboxamide] | 82.2%
COc1cc(C=C(C#N)C(=O)Nc2cccc(Cl)c2)cc(O)c1O [9-G20, N-(3-chlorophenyl)-2-cyano-3-(3,4-dihydroxy-5-methoxyphenyl)prop-2-enamide] | 72.4%
Cc1ccc(C=C(C#N)C(=O)Nc2nccs2)o1 [9-P10, 2-cyano-3-(5-methylfuran-2-yl)-N-(1,3-thiazol-2-yl)prop-2-enamide] | 126%
N#CC(=Cc1ccc2c(c1)OCO2)C(=O)NCc1ccccc1 [8-A09, 3-(1,3-dioxaindan-5-yl)-N-benzyl-2-cyanoprop-2-enamide] | 85.6%
CNC(=O)C(C#N)=Cc1cc(C)n(-c2cccc3ccccc23)c1C [9-P16, 2-cyano-3-[2,5-dimethyl-1-(naphthalen-1-yl)-1H-pyrrol-3-yl]-N-methylprop-2-enamide] | 109%
N#CC(=Cc1c[nH]c2ccccc12)C(=O)Nc1ccccn1 [9-B10, 2-cyano-3-(1H-indol-3-yl)-N-(pyridin-2-yl)prop-2-enamide] | 111%
N#CC(=Cc1c(F)c(F)c(F)c(F)c1F)C(=O)NC1CCCCC1 [8-O15, 2-cyano-N-cyclohexyl-3-(2,3,4,5,6-pentafluorophenyl)prop-2-enamide] | 0.544%
C=CC(=O)N(C)CC(=O)NC1CCN(C(=O)c2ccc(C)cc2)CC1 [2-N14, N-methyl-N-({[1-(4-methylbenzoyl)piperidin-4-yl]carbamoyl}methyl)prop-2-enamide] | 66.3%
O=C(CCl)NCc1[nH]nc2c1CCCC2 [6-E04, 2-chloro-N-[(4,5,6,7-tetrahydro-2H-indazol-3-yl)methyl]acetamide] | 59.9%
O=C(CCl)N(Cc1cnn(-c2ccccc2)c1)C1CC1 [6-L09, 2-chloro-N-cyclopropyl-N-[(1-phenyl-1H-pyrazol-4-yl)methyl]acetamide] | 1.4%
COc1ccc(-n2c(C)cc(C=C(C#N)C(=O)N(C)OC)c2C)cc1 [9-N16, 2-cyano-N-methoxy-3-[1-(4-methoxyphenyl)-2,5-dimethyl-1H-pyrrol-3-yl]-N-methylprop-2-enamide] | 88.4%
C=CC(=O)Nc1cnc(S(C)(=O)=O)c(C)c1 [2-O14, N-(6-methanesulfonyl-5-methylpyridin-3-yl)prop-2-enamide] | 99.6%

Compound | viability at 48 h, 25 µM
Cc1ccc(NC(=O)C(C#N)=Cc2ccc(OC(F)F)cc2)c(C)c1 [9-G19, 2-cyano-3-[4-(difluoromethoxy)phenyl]-N-(2,4-dimethylphenyl)prop-2-enamide] | 90.4%
C=CC(=O)NCCC(=O)N1CCC(C)(C)S(=O)(=O)CC1 [3-G19, N-[3-(7,7-dimethyl-1,1-dioxo-1lambda6,4-thiazepan-4-yl)-3-oxopropyl]prop-2-enamide] | 41.2%
CN(C)C(=O)c1ccc(CNC(=O)CCl)cc1 [6-C16, 4-[(2-chloroacetamido)methyl]-N,N-dimethylbenzamide] | 67.8%
Cc1nc2cc(=O)[nH]n2c(C)c1CNC(=O)C(C)Cl (stereo not drawn) [7-B07, 2-chloro-N-({5,7-dimethyl-2-oxo-1H,2H-pyrazolo[1,5-a]pyrimidin-6-yl}methyl)propanamide] | 96.1%
CCN(c1ccc(C(=O)CCl)cc1)S(C)(=O)=O [10-F04, N-[4-(2-chloroacetyl)phenyl]-N-ethylmethanesulfonamide] | 22.5%
C=CC(=O)Nc1cc(Cl)cc(C)c1OC [1-E16, N-(5-chloro-2-methoxy-3-methylphenyl)prop-2-enamide] | 45.9%
C=CC(=O)NCC(=O)Nc1ccc2c[nH]nc2c1 [1-L11, N-{[(2H-indazol-6-yl)carbamoyl]methyl}prop-2-enamide] | 89.7%
N#CC(=Cc1cccnc1)C(=O)NCCc1ccccc1 [9-K14, 2-cyano-N-(2-phenylethyl)-3-(pyridin-3-yl)prop-2-enamide] | 89.3%
CC(Cl)C(=O)Nc1c(Cl)cccc1Cl (stereo not drawn) [4-B16, 2-chloro-N-(2,6-dichlorophenyl)propanamide] | 128%
C=CC(=O)N1CCC(Cc2nc(CC)no2)CC1 [3-A11, 1-{4-[(3-ethyl-1,2,4-oxadiazol-5-yl)methyl]piperidin-1-yl}prop-2-en-1-one] | 60.7%
C=CC(=O)N(C)CC(=O)N1CCCc2ccccc21 [3-D15, N-methyl-N-[2-oxo-2-(1,2,3,4-tetrahydroquinolin-1-yl)ethyl]prop-2-enamide] | 65.7%
Cc1ccc(C=C(C#N)C(=O)Nc2cccc3ccccc23)cc1 [8-M14, 2-cyano-3-(4-methylphenyl)-N-(naphthalen-1-yl)prop-2-enamide] | 121%
CC(NC(=O)CCl)c1cc(C(F)(F)F)[nH]n1 (stereo not drawn) [5-P11, 2-chloro-N-{1-[5-(trifluoromethyl)-1H-pyrazol-3-yl]ethyl}acetamide] | 0.786%
C=CC(=O)Nc1cccc(C(F)(F)CF)c1 [2-O12, N-[3-(1,1,2-trifluoroethyl)phenyl]prop-2-enamide] | 98.8%
CC(Cl)C(=O)N(c1ccccc1)C1CCOC1 (stereo not drawn) [7-G14, 2-chloro-N-(oxolan-3-yl)-N-phenylpropanamide] | 64.4%
Cc1noc(C)c1COC1CCN(C(=O)C(C)Cl)C1 (stereo not drawn) [7-O14, 2-chloro-1-{3-[(3,5-dimethyl-1,2-oxazol-4-yl)methoxy]pyrrolidin-1-yl}propan-1-one] | 90.9%
CC(Cl)C(=O)N1CCC(c2nc(C3CC3)no2)(C(F)(F)F)C1 (stereo not drawn) [7-K12, 2-chloro-1-[3-(3-cyclopropyl-1,2,4-oxadiazol-5-yl)-3-(trifluoromethyl)pyrrolidin-1-yl]propan-1-one] | 83.5%
C=CC(=O)NCC1CCc2nnc(C(C)C)n2C1 (stereo not drawn) [2-J03, N-{[3-(propan-2-yl)-5H,6H,7H,8H-[1,2,4]triazolo[4,3-a]pyridin-6-yl]methyl}prop-2-enamide] | 60.6%
O=C(CCl)Nc1ccc(CN2CCCCC2)cc1 [6-M04, 2-chloro-N-{4-[(piperidin-1-yl)methyl]phenyl}acetamide hydrochloride] | 0.0889%
CC(=O)Nc1ccc(NC(=O)C(C)Cl)cc1 (stereo not drawn) [5-N06, 2-chloro-N-(4-acetamidophenyl)propanamide] | 101%
N#CC(=Cc1cccc(Cl)c1)C(=O)Nc1ccccc1C(F)(F)F [8-J13, 3-(3-chlorophenyl)-2-cyano-N-[2-(trifluoromethyl)phenyl]prop-2-enamide] | 101%
N#CC(=Cc1cnn(-c2ccc(Cl)cc2)c1)C(=O)NC1CCCCC1 [8-A08, 3-[1-(4-chlorophenyl)-1H-pyrazol-4-yl]-2-cyano-N-cyclohexylprop-2-enamide] | 60.6%
C=CC(=O)N(C)CC(=O)N1CCCCC1c1nc(C)c(C)s1 (stereo not drawn) [2-E20, N-{2-[2-(4,5-dimethyl-1,3-thiazol-2-yl)piperidin-1-yl]-2-oxoethyl}-N-methylprop-2-enamide] | 116%
CNc1ccc(C=C(C#N)C(=O)Nc2ccccc2F)cc1[N+](=O)[O-] [8-N09, 2-cyano-N-(2-fluorophenyl)-3-[4-(methylamino)-3-nitrophenyl]prop-2-enamide] | 110%
C=CC(=O)N1CCC(C(=O)NCC2COC3(CCCC3)O2)CC1 (stereo not drawn) [3-A16, N-({1,4-dioxaspiro[4.4]nonan-2-yl}methyl)-1-(prop-2-enoyl)piperidine-4-carboxamide] | 73.4%
